{"source": "patent US12715851B2", "about": "“4′-substituted analogues of fisetin and their use in the treatment of cancer” (Stellenbosch University, priority 2020, dated 2026)", "key": {"[1]": {"test": "Acute toxicity, fed orally for two weeks", "type": "in vivo", "conditions": "Fisetin 50 mg/kg, 3c 25 and 50 mg/kg body weight", "method": "Fisetin analogue 3c was used to assess the potential toxicity of these analogues in a pre-clinical model. To test the acute toxicity, Fisetin (50 mg/kg body weight), analogue 3c (25 mg/kg and 50 mg/kg body weight), and vehicle control (5% DMSO, 45% PEG-300 and 50% saline) was fed orally for two weeks. Abnormal clinical signs such as decreased motor activity, sensory reflection, body weight, food intake, and water intake were monitored during the treatment period. An increase in body weight was observed among all groups throughout the treatment period (FIG. 7A). […] This variation could be due to consistent frequency of dosage."}, "[2]": {"tested_on": "lipid peroxidation (MDA formation)", "test": "Hepatotoxicity: lipid peroxidation assay on microsomal liver fraction (TBARS)", "type": "in vivo, swiss albino mice", "conditions": "microsomal liver fraction of treated mice", "method": "(§1) Hepatotoxicity is considered to be one of the major challenges for drug development schemes. The liver is the primary organ for the metabolism or biotransformation of a given drug. To assess the hepatotoxicity of these compounds, the effects of Fisetin and analogue 3c on various hepatic enzymes was assessed.\n(§2) A lipid peroxidation assay was performed on microsomal liver fraction and determined in terms of TBARS formation. […] The modulatory effects of Fisetin and analogue 3c were determined on the specific activities of cytochrome b5 reductase (Cytb5R) and cytochrome P450 reductase (CytP450R), phase I enzyme of xenobiotic metabolism. Fisetin and analogue 3c caused reduction in the specific activity of cytochrome b5 reductase. Fisetin decreased Cytb5R specific activity by 66% whereas analogue 3c (50 mg/kg) caused a 36% reduction in specific activity (FIG. 7F). An increase in specific activity of CytP450R by Fisetin and analogue 3c was observed. Fisetin and analogue 3c (50 mg/kg) increased the specific activity by 15% and 13%, respectively (FIG. 7G). Next, the specific activities of phase II enzymes, glutathione S-transferase (GST) and reduced glutathione (GSH) were measured. […] Fisetin and analogue 3c (50 mg/kg) caused a decrease in specific activity of GSH by 34% and 7%, respectively (FIG. 7I). […] These analogues are therefore likely to be effective and safe phytochemicals."}, "[3]": {"tested_on": "SOD", "test": "Hepatotoxicity: specific activity of SOD", "type": "in vivo, swiss albino mice", "conditions": "liver of treated mice", "method": "as §1, §2"}, "[4]": {"tested_on": "cytochrome b5 reductase (Cytb5R)", "test": "Hepatotoxicity: specific activity of cytochrome b5 reductase", "type": "in vivo, swiss albino mice", "conditions": "50 mg/kg orally, two weeks", "method": "as §1, §2"}, "[5]": {"tested_on": "cytochrome P450 reductase (CytP450R)", "test": "Hepatotoxicity: specific activity of cytochrome P450 reductase", "type": "in vivo, swiss albino mice", "conditions": "50 mg/kg orally, two weeks", "method": "as §1, §2"}, "[6]": {"tested_on": "glutathione S-transferase (GST)", "test": "Hepatotoxicity: specific activity of glutathione S-transferase", "type": "in vivo, swiss albino mice", "conditions": "liver of treated mice", "method": "as §1, §2"}, "[7]": {"tested_on": "reduced glutathione (GSH)", "test": "Hepatotoxicity: reduced glutathione", "type": "in vivo, swiss albino mice", "conditions": "50 mg/kg orally, two weeks", "method": "as §1, §2"}, "[8]": {"tested_on": "B(a)P-induced lung carcinogenesis", "test": "B(a)P-induced lung carcinogenesis, Initiation and Promotion Protocols", "type": "in vivo, Swiss albino mice", "source_text": "To assess whether Fisetin and its 4-bromo-Fisetin analogue (Fisetin analogue 3c) have anticarcinogenesis activity and if any toxicity in terms of water and food consumption, and body weight, Benzo[a]pyrene [B(a)P] induced lung carcinogenesis in Swiss albino mice were employed in the study. Along with the antitumor activity of the agents, the body weight, food and water intake in different treatment groups were monitored on regular intervals and analysed.\nThere were six different treatment groups in the study including, (1) control, (2) B(a)P, (3) Fisetin+B(a)P, (4) Fisetin analogue 3c+B(a)P, (5) B(a)P+Fisetin and (6) B(a)P+Fisetin analogue 3c.\nGroups 3 and 4 represent the Initiation Protocol (agents treatment started 1 week before carcinogen treatment and continued 1 week after the last dose of the carcinogen). Groups 5 and 6 represent the Promotion Protocol (agents treatment started after 3 weeks of the carcinogen treatment). The B(a)P was given orally twice a week for 4 weeks at 50 mg/kg body weight dose, whereas Fisetin and Fisetin analogue (3c) were administered orally at 25 mg/kg body weight thrice weekly (see FIG. 9)."}, "[9]": {"conditions": "cited from earlier work"}, "[10]": {"tested_on": "22rv1 prostate carcinoma cells", "conditions": "retained on methylation of the 3-hydroxy group; cited from earlier work"}, "[11]": {"tested_on": "a range of cancer cell lines", "conditions": "reported in the literature; cited from earlier work"}}, "data": [{"smiles": "O=c1c(O)c(-c2ccc(O)c(O)c2)oc2cc(O)ccc12", "note": "[Fisetin]", "values": [{"measurement": "toxicity in mice, in words", "setting": "[1]", "result": "did not cause toxicity"}, {"measurement": "MDA formation (TBARS)", "setting": "[2]", "result": "No significant change"}, {"measurement": "specific activity of SOD", "setting": "[3]", "result": "moderately induced"}, {"measurement": "reduction in specific activity of cytochrome b5 reductase", "setting": "[4]", "result": 66, "unit": "%"}, {"measurement": "increase in specific activity of CytP450R", "setting": "[5]", "result": 15, "unit": "%"}, {"measurement": "specific activities of GST compared to the control group", "setting": "[6]", "result": "did not cause significant change"}, {"measurement": "decrease in specific activity of GSH", "setting": "[7]", "result": 34, "unit": "%"}, {"measurement": "systemic toxicity during long-term application", "setting": "[8]; 25 mg/kg orally thrice weekly", "result": "did not show any systemic toxicity"}, {"measurement": "tumorigenic features in lung histology (nucleus size, cytoplasmic content, alveoli)", "setting": "[8]; 25 mg/kg orally thrice weekly", "result": "reversal of the tumorigenic features"}, {"measurement": "tumor incidence, histopathology of H&E stained serial sections", "setting": "[8]; compared to the carcinogen treated group", "result": "less"}, {"measurement": "area or size of tumor lesions, in words", "setting": "[8]; tumor initiation phase / initiation protocol", "result": "not effective as compared to the analogue"}, {"measurement": "tumor lesions per mouse and total number of lesions per group, in words", "setting": "[8]; versus B(a)P group", "result": "strongly reduced"}, {"measurement": "pKa of the 4′-hydroxyl group", "setting": "[9]", "result": "~ 9.4"}, {"measurement": "pKa of the 7-hydroxyl group", "setting": "[9]; most acidic position", "result": "~ 7.3"}]}, {"smiles": "COc1cc(-c2oc3ccccc3c(=O)c2O)cc(OC)c1OC", "note": "[TMFol]", "values": [{"measurement": "activity against 22rv1 prostate carcinoma cells", "setting": "[10]", "result": "low micromolar activity"}]}, {"smiles": "O=C1C[C@@H](c2ccc(O)cc2)Oc2cc(O)cc(O)c21", "note": "[navingenin]", "values": [{"measurement": "activity against cancer cell lines compared to apigenin", "setting": "[11]", "result": "inactive"}]}]}
